Laboratory results published in ChEMBL document CHEMBL3872207, “Aromatic heterocyclic esters of podophyllotoxin exert anti-MDR activity in human leukemia K562/ADR cells via ROS/MAPK signaling pathways” (Eur J Med Chem, 2016).
The source made the active and inactive calls. The rule behind the calls is not given here.

How the values were obtained:
K562/Adr [1] = experiment: Induction of apoptosis in human K562/ADR cells assessed as cell shrinkage at 0.1 uM measured after 24 hrs by Hoechst33342 staining-based inverted fluorescent microscopic analysis; type: functional
[2] = target: c-Jun N-terminal kinase, JNK (Homo sapiens) (UniProt P45983+P53779+P45984); experiment: Induction of JNK phosphorylation in human K562/ADR cells assessed as ratio of phosphorylated JNK to beta-actin level at 0.1 uM pretreated with MAPK inhibitor SP600125 for 1 hr followed by compound addition after 48 hrs by Western blotting method (reference value: 0.46); type: cell-based
K562/Adr [3] = experiment: Induction of apoptosis in human K562/ADR cells assessed as late apoptotic cells at 0.1 uM after 48 hrs by Annexin V-APC/7-AAD staining based flow cytometry (reference value: 1.69%); type: functional
[4] = Antiproliferative activity against human K562 cells measured after 72 hrs by CCK8 assay; type: functional, cell-based; conditions: K562, 72 h
K562/Adr [5] = experiment: Induction of apoptosis in human K562/ADR cells assessed as late apoptotic cells at 0.1 uM pretreated with MAPK inhibitor SB203580 for 1 hr followed by compound addition after 48 hrs by Annexin V-APC/7-AAD staining based flow cytometry (reference value: 1.69%); type: functional; set-up: scale not given: the % may be the effect or the level left
[6] = Downregulation of P-gp expression in human K562/ADR cells assessed as ratio of P-gp to beta-actin level at 0.1 uM pretreated with MAPK inhibitor SP600125 for 1 hr followed by compound addition measured after 48 hrs by Western blot analysis (reference value: 0.63); type: functional, cell-based
[7] = target: T1, MAP kinase p38 (Homo sapiens) (UniProt O15264+Q15759+Q16539+P53778); experiment: Induction of P38 phosphorylation in human K562/ADR cells assessed as ratio of phosphorylated p38 to beta-actin level at 0.1 uM pretreated with MAPK inhibitor SP600125 for 1 hr followed by compound addition after 48 hrs by Western blotting method (reference value: 0.25); type: cell-based
[8] = target: T1, MAP kinase p38 (Homo sapiens); experiment: Induction of P38 phosphorylation in human K562/ADR cells assessed as ratio of phosphorylated p38 to beta-actin level at 0.1 uM measured after 48 hrs by Western blotting method (reference value: 0.25); type: cell-based
K562/Adr [9] = experiment: Induction of apoptosis in human K562/ADR cells assessed as ratio of cleaved caspase-3 to beta-actin level at 0.1 uM pretreated with MAPK inhibitor SP600125 for 1 hr followed by compound addition measured after 48 hrs by Western blot analysis (reference value: 0.06); type: functional
K562/Adr [10] = experiment: Induction of apoptosis in human K562/ADR cells assessed as ratio of cleaved caspase-3 to beta-actin level at 0.1 uM measured after 48 hrs by Western blot analysis (reference value: 0.06); type: functional
K562/Adr [11] = experiment: Induction of intracellular ROS accumulation in human K562/ADR cells assessed as fluorescence intensity at 0.1 uM treated 2 hrs post ROS scavenger NAC addition measured after 24 hrs by DCFH-DA probe based flow cytometry relative to vehicle-treated control; type: functional
[12] = Downregulation of CyclinA expression in human K562/ADR cells assessed as ratio of CyclinA to beta-actin level at 0.1 uM pretreated with ROS scavenger NAC for 2 hrs followed by compound addition measured after 48 hrs by Western blot analysis (reference value: 0.64); type: functional, cell-based
K562/Adr [13] = experiment: Induction of apoptosis in human K562/ADR cells assessed as necrotic cells at 0.1 uM pretreated with MAPK inhibitor SB203580 for 1 hr followed by compound addition after 48 hrs by Annexin V-APC/7-AAD staining based flow cytometry (reference value: 0.26%); type: functional; set-up: scale not given: the % may be the effect or the level left
[14] = Downregulation of CDK1 expression in human K562/ADR cells assessed as ratio of CDK1 to beta-actin level at 0.1 uM pretreated with MAPK inhibitor U0126 for 1 hr followed by compound addition measured after 48 hrs by Western blot analysis (reference value: 0.53); type: functional, cell-based
K562/Adr [15] = experiment: Induction of ERK1/2 phosphorylation in human K562/ADR cells assessed as ratio of phosphorylated ERK1/2 to beta-actin level at 0.1 uM pretreated with MAPK inhibitor SP600125 for 1 hr followed by compound addition after 48 hrs by Western blotting method (reference value: 0.22); type: cell-based
[16] = Downregulation of P-gp expression in human K562/ADR cells assessed as ratio of P-gp to beta-actin level at 0.1 uM pretreated with MAPK inhibitor U0126 for 1 hr followed by compound addition measured after 48 hrs by Western blot analysis (reference value: 0.63); type: functional, cell-based
[17] = Downregulation of CDK1 expression in human K562/ADR cells assessed as ratio of CDK1 to beta-actin level at 0.1 uM pretreated with MAPK inhibitor SP600125for 1 hr followed by compound addition measured after 48 hrs by Western blot analysis (reference value: 0.53); type: functional, cell-based
K562/Adr [18] = experiment: Induction of apoptosis in human K562/ADR cells assessed as ratio of cleaved PARP to beta-actin level at 0.1 uM pretreated with ROS scavenger NAC for 2 hrs followed by compound addition measured after 48 hrs by Western blot analysis (reference value: 0.04); type: functional
K562/Adr [19] = experiment: Induction of ERK1/2 phosphorylation in human K562/ADR cells assessed as ratio of phosphorylated ERK1/2 to beta-actin level at 0.1 uM pretreated with MAPK inhibitor SB203580 for 1 hr followed by compound addition after 48 hrs by Western blotting method (reference value: 0.22); type: cell-based
[20] = Downregulation of CDK2 expression in human K562/ADR cells assessed as ratio of CDK2 to beta-actin level at 0.1 uM measured after 48 hrs by Western blot analysis (reference value: 0.65); type: functional, cell-based
K562 = experiment: Resistance index, ratio of IC50 for human K562/ADR cells to IC50 for human K562 cells; type: functional
K562/Adr [21] = experiment: Induction of apoptosis in human K562/ADR cells assessed as ratio of cleaved caspase-9 to beta-actin level at 0.1 uM pretreated with ROS scavenger NAC for 2 hrs followed by compound addition measured after 48 hrs by Western blot analysis (reference value: 0.05); type: functional
K562/Adr [22] = experiment: Induction of apoptosis in human K562/ADR cells assessed as ratio of cleaved caspase-9 to beta-actin level at 0.1 uM pretreated with MAPK inhibitor U0126 for 1 hr followed by compound addition measured after 48 hrs by Western blot analysis (reference value: 0.05); type: functional
[23] = target: T1, MAP kinase p38 (Homo sapiens); experiment: Induction of P38 phosphorylation in human K562/ADR cells assessed as ratio of phosphorylated p38 to beta-actin level at 0.1 uM pretreated with MAPK inhibitor SB203580 for 1 hr followed by compound addition after 48 hrs by Western blotting method (reference value: 0.25); type: cell-based
K562/Adr [24] = experiment: Induction of apoptosis in human K562/ADR cells assessed as viable cells at 0.1 uM after 48 hrs by Annexin V-APC/7-AAD staining based flow cytometry (reference value: 95.31%); type: functional; conditions: read-out: Activity
K562/Adr [25] = experiment: Induction of apoptosis in human K562/ADR cells assessed as ratio of cleaved caspase-9 to beta-actin level at 0.1 uM measured after 48 hrs by Western blot analysis (reference value: 0.05); type: functional

## COc1cc([C@@H]2c3cc4c(cc3[C@H](OC(=O)c3ccco3)[C@H]3COC(=O)[C@H]23)OCO4)cc(OC)c1OC
K562/Adr [1]
  Activity: Active
[2]
  Ratio: 0.05
K562/Adr [3]
  Activity: 40.45%
[4]
  IC50: 25 nM
K562/Adr [5]
  Activity: 30.87%
[6]
  Ratio: 0.34
[7]
  Ratio: 0.19
[8]
  Ratio: 0.46
K562/Adr [9]
  Ratio: 0.51
K562/Adr [10]
  Ratio: 0.68
K562/Adr [11]
  fold change (FC): 0.49
[12]
  Ratio: 0.58
K562/Adr [13]
  Activity: 2.86%
[14]
  Ratio: 0.26
K562/Adr [15]
  Ratio: 0.06
[16]
  Ratio: 0.35
[17]
  Ratio: 0.19
K562/Adr [18]
  Ratio: 0.13
K562/Adr [19]
  Ratio: 0.15
[20]
  Ratio: 0.14
K562
  Ratio IC50: 1.28
K562/Adr [21]
  Ratio: 0.1
K562/Adr [22]
  Ratio: 0.26
[23]
  Ratio: 0.02
K562/Adr [24]
  viability at 0.1 µM: 46.1%
K562/Adr [25]
  Ratio: 0.69
